Source: patent US8039430B2 (University of Wollongong, priority 2005, dated 2011)
Values after ≈ are worked out from the molar mass of the structure shown. Where two headings read alike, the source gives them in different places.

What was measured:
[1] = system: #987 E. faecium van B ST39; assay: Antibacterial assay (MIC), VRE strain #987, Enterococossel Broth, Example 1; type: cell-based, Enterococcus faecium; settings: for MIC: Enterococcus faecium, read-out: 987 (minimum inhibitory concentration)
Experimental: (§1) Antibacterial Assay Method for Staphylococcus aureus (ATCC 6538P) and Enterococcus faecium
(§2) #820 E. faecium van A ST17 #987 E. faecium van B ST39
(§3) Compounds are accurately weighed out (between approx. 1-2 mg) and dissolved in either 10% methanol/water (v/v) or 100% DMSO to a final stock concentration of 5 mg/ml.
(§4) Compounds are then diluted 1/10 in H2O to a test conc of 500 ug/ml ready for immediate use, or storage at −20° C.
(§5) Grow up an o/n starter culture of Staphylococcus aureus and each VRE strain by diluting previous culture (stored at 4° C.) 1/1000 into −50 mls Luria Broth (LB) for S. aureus or Enterococossel Broth (EB) for the VRE strains.
(§6) Incubate o/n at 37° C.+shaking. • A glycerol stock (0.6 mls bacterial culture, 0.3 mls glycerol) of each strain is kept at −80° C. if needed. Assay Set Up:
(§7) In a 96well round bottom plate add 50 ul LB/well for the S. aureus plate and add 50 ul EB/well for the VRE plates.
(§8) Add 50 ul of compound dilution (500 ug/ml test conc) to each of three top row wells (ie: tested in triplicate) and dilute 1 in 2 from the top row to the bottom row.
(§9) After the compound dilution, add to each well 50 ul of a 1/1000 dilution of the appropriate overnight bacterial culture, either S. aureus or the different VRE strains.
(§10) Plates are incubated at 37° C. on a slowly rotating plate incubator. • test concentrations are (in ug/ml) 125, 62.5, 31.25, 15.6, 7.8, 3.9, 1.9, 0.98 • final DMSO concentration in the first row of wells of the assay is 2.5% • Vancomycin is included in the assay (in triplicate) at a starting test concentration of 5 ug/ml for S. aureus and 125 ug/ml for the VRE strains Reading Results of Assay:
(§11) After incubation for 24 hrs the plates are removed and read. Inhibition of bacterial growth is indicated by lack of bacterial pellet or a clear well. In the VRE plates bacterial growth is indicated by black coloured media (EB) as well as a bacterial pellet.
(§12) Untreated control wells are included in the assay to check they all contain bacterial pellets. Uninoculated untreated control wells are included to check they all contain clear medium.
(§13) The plates are analysed for MIC and the results tabulated.

[2] = system: #243 E. faecium van B ST17; assay: Antibacterial assay (MIC), VRE strain #243, Enterococossel Broth, Example 1; type: cell-based, Enterococcus faecium; settings: for MIC: Enterococcus faecium, read-out: 243 (minimum inhibitory concentration)
Experimental: as §1
(§14) VRE strains: #243 E. faecium van B ST17 #449 E. faecium van B ST17
as §3, §4, §5, §6, §7, §8, §9, §10, §11, §12, §13

[3] = system: #820 E. faecium van A ST17; assay: Antibacterial assay (MIC), VRE strain #820, Enterococossel Broth, Example 1; type: cell-based, Enterococcus faecium; settings: for MIC: Enterococcus faecium, read-out: 820 (minimum inhibitory concentration)
Experimental: as §1, §2, §3, §4, §5, §6, §7, §8, §9, §10, §11, §12, §13

[4] = system: Staphylococcus aureus (ATCC 6538P); assay: Antibacterial assay (MIC), Staphylococcus aureus ATCC 6538P, Luria Broth, Example 1; type: cell-based; settings: for MIC: Staphylococcus aureus, ATCC6538P, read-out: Sa (minimum inhibitory concentration)
Experimental: as §1
Staphylococcus aureus (ATCC 6538P)
as §3, §4, §5, §6, §7, §8, §9, §10, §11, §12, §13

[5] = system: #449 E. faecium van B ST17; assay: Antibacterial assay (MIC), VRE strain #449, Enterococossel Broth, Example 1; type: cell-based, Enterococcus faecium; settings: for MIC: Enterococcus faecium, read-out: 449 (minimum inhibitory concentration)
Experimental: as §1, §14, §3, §4, §5, §6, §7, §8, §9, §10, §11, §12, §13

[6] = Example 1 compounds, VRE #987 E. faecium van B, 24 hrs, 37° C.
[7] = Example 1 compounds, VRE #243 E. faecium van B, 24 hrs, 37° C.
[8] = Example 1 compounds, VRE #820 E. faecium van A, 24 hrs, 37° C.
[9] = Example 1 compounds, S. aureus ATCC 6538P, 24 hrs, 37° C., range if at least two of three values fell within it
[10] = Example 1 compounds, VRE #449 E. faecium van B, 24 hrs, 37° C.

| MIC [1, 6] [µg/mL] | MIC [2, 7] [µg/mL] | MIC [3, 8] [µg/mL] | MIC [4, 9] [µg/mL] | MIC [5, 10] [µg/mL] | SMILES | other results |
| --- | --- | --- | --- | --- | --- | --- |
| 15.7 to 62.5 | 15.7 to 62.5 | 15.7 to 62.5 | 0.99 to 15.6 | 15.7 to 62.5 | CC(C)C[C@H](NC(=O)[C@@H](CCCNC(=N)N)NC(=O)[C@@H](CCCCN)NC(=O)COc1ccc2ccccc2c1-c1c(OCCc2ccccc2)ccc2ccccc12)C(=O)OCc1ccccc1.Cl.Cl (atropisomer, axis not shown) [Compound 28] | – |
| 15.7 to 62.5 | 15.7 to 62.5 | 0.99 to 15.6 | 0.99 to 15.6 | 0.99 to 15.6 | C=CC[C@H](NC(=O)[C@@H](CCCNC(=N)N)NC(=O)[C@@H](CCCCN)NC(=O)COc1ccc2ccccc2c1-c1c(OCCC(C)C)ccc2ccccc12)C(=O)OCc1ccccc1.Cl.Cl (atropisomer, axis not shown) [Compound 29] | – |
| > 62.6 | > 62.6 | 15.7 to 62.5 | 0.99 to 15.6 | > 62.6 | Cl.Cl.NCCCC[C@@H](NC(=O)CCCOc1ccc2ccccc2c1-c1c(OCCCC(=O)N[C@H](CCCCN)C(=O)OCc2cccc3ccccc23)ccc2ccccc12)C(=O)OCc1cccc2ccccc12 (atropisomer, axis not shown) [Compound 35] | – |
| > 62.6 | > 62.6 | 15.7 to 62.5 | 0.99 to 15.6 | 15.7 to 62.5 | Cl.Cl.N=C(N)NCCCC[C@@H](NC(=O)CCCOc1ccc2ccccc2c1-c1c(OCCCC(=O)N[C@H](CCCCNC(=N)N)C(=O)OCc2ccccc2)ccc2ccccc12)C(=O)OCc1ccccc1 (atropisomer, axis not shown) [Compound 39] | – |
| 15.7 to 62.5 | 15.7 to 62.5 | 15.7 to 62.5 | 0.99 to 15.6 | 15.7 to 62.5 | C=CCOc1ccc2ccccc2c1-c1c(OCC(=O)N[C@H](CCCNC(=N)N)C(=O)Nc2cccc(C(=O)OCc3ccccc3)c2)ccc2ccccc12.Cl (atropisomer, axis not shown) [Compound 45] | – |
| > 62.6 | > 62.6 | > 62.6 | 0.99 to 15.6 (≈ 1.04 to 16.4 µM) | > 62.6 | N=C(N)NCCC[C@@H](NC(=O)CCCOc1ccc2ccccc2c1-c1c(OCCCC(=O)N[C@H](CCCNC(=N)N)C(=O)OCc2ccccn2)ccc2ccccc12)C(=O)OCc1ccccn1 [Compound 37] | – |

More lines, now with the values behind:

| SMILES | MIC [1, 6] [µg/mL] | MIC [2, 7] [µg/mL] | MIC [3, 8] [µg/mL] | MIC [4, 9] [µg/mL] | MIC [5, 10] [µg/mL] | other results |
| --- | --- | --- | --- | --- | --- | --- |
| Cl.Cl.NCCCC[C@@H](NC(=O)CCCOc1ccc2ccccc2c1-c1c(OCCCC(=O)N[C@H](CCCCN)C(=O)OCc2ccccc2)ccc2ccccc12)C(=O)OCc1ccccc1 (atropisomer, axis not shown) [Compound 34] | > 62.6 | > 62.6 | 15.7 to 62.5 | 0.99 to 15.6 | 15.7 to 62.5 | – |
| Cl.Cl.N=C(N)NCCCC[C@@H](NC(=O)CCCOc1ccc2ccccc2c1-c1c(OCCCC(=O)N[C@H](CCCCNC(=N)N)C(=O)Oc2cccc3ccccc23)ccc2ccccc12)C(=O)Oc1cccc2ccccc12 (atropisomer, axis not shown) [Compound 40] | > 62.6 | > 62.6 | 15.7 to 62.5 | 0.99 to 15.6 | > 62.6 | – |
| C=CCOc1ccc2ccccc2c1-c1c(OCC(=O)N[C@H](CCCN)C(=O)Nc2cccc(C(=O)OC)c2)ccc2ccccc12.Cl (atropisomer, axis not shown) [Compound 41] | > 62.6 | > 62.6 | > 62.6 | 0.99 to 15.6 | > 62.6 | – |
| C=CCOc1ccc2ccccc2c1-c1c(OCC(=O)N[C@H](CCCN)C(=O)Nc2cccc(C(=O)OCc3ccccc3)c2)ccc2ccccc12.Cl (atropisomer, axis not shown) [Compound 42] | > 62.6 | > 62.6 | > 62.6 | 15.7 to 62.5 | > 62.6 | – |
| C=CCOc1ccc2ccccc2c1-c1c(OCC(=O)N[C@H](CCCNC(=N)N)C(=O)Nc2cccc(C(=O)OC)c2)ccc2ccccc12.Cl (atropisomer, axis not shown) [Compound 44] | > 62.6 | > 62.6 | 15.7 to 62.5 | 0.99 to 15.6 | > 62.6 | – |
| C=CCOc1ccc2ccccc2c1-c1c(OCC(=O)N[C@H](CCCNC(=N)N)C(=O)Nc2cccc(C(=O)NOCc3ccccc3)c2)ccc2ccccc12.Cl (atropisomer, axis not shown) [Compound 46] | > 62.6 | > 62.6 | > 62.6 | 0.99 to 15.6 | > 62.6 | – |
| CCC(C)[C@H](NC(=O)[C@@H](CCCNC(=N)N)NC(=O)[C@@H](CCCCN)NC(=O)COc1ccc2ccccc2c1-c1c(OCCC(C)C)ccc2ccccc12)C(=O)OCc1ccccc1.Cl.Cl (stereo partly drawn) [Compound 3] | 15.7 to 62.5 | 15.7 to 62.5 | 15.7 to 62.5 | 0.99 to 15.6 | 15.7 to 62.5 | – |
| CC(C)CCOc1ccccc1-c1ccccc1OCC(=O)N[C@H](CCCCN)C(=O)N[C@H](CCCNC(=N)N)C(=O)N[C@@H](CC(C)C)C(=O)OCc1ccccc1.Cl.Cl [Compound 11] | 15.7 to 62.5 | 15.7 to 62.5 | 15.7 to 62.5 | 0.99 to 15.6 | 15.7 to 62.5 | – |
| C=CC[C@H](NC(=O)[C@@H](CCCNC(=N)N)NC(=O)[C@@H](CCCCN)NC(=O)COc1ccc2ccccc2c1-c1c(OCC(C)(C)C)ccc2ccccc12)C(=O)OCc1ccccc1 [Compound 27] | > 62.6 | 15.7 to 62.5 (≈ 17.7 to 70.5 µM) | 15.7 to 62.5 (≈ 17.7 to 70.5 µM) | 0.99 to 15.6 (≈ 1.12 to 17.6 µM) | 15.7 to 62.5 (≈ 17.7 to 70.5 µM) | – |
| NCCCC[C@@H](NC(=O)CCCOc1ccc2ccccc2c1-c1c(OCCCC(=O)N[C@H](CCCCN)C(=O)OCc2ccccn2)ccc2ccccc12)C(=O)OCc1ccccn1 [Compound 36] | – | – | – | – | – | MIC ([1]; VRE, 24 h): > 62.6 µg/mL; MIC ([2]; VRE, 24 h): > 62.6 µg/mL; MIC ([3]; VRE, 24 h): > 62.6 µg/mL; MIC ([4]; 24 h): > 62.6 µg/mL; MIC ([5]; VRE, 24 h): > 62.6 µg/mL |
| C=CCOc1ccc2ccccc2c1-c1c(OCC(=O)N[C@H](CCCN)C(=O)Nc2cccc(C(=O)NOCc3ccccc3)c2)ccc2ccccc12 [Compound 43] | > 62.6 | > 62.6 | 15.7 to 62.5 (≈ 21.7 to 86.5 µM) | 0.99 to 15.6 (≈ 1.37 to 21.6 µM) | > 62.6 | – |
| COC(=O)[C@H]1CC=CCOc2ccc(cc2)C[C@H](NC(C)=O)C(=O)N[C@@H](CCCN=C(N)NS(=O)(=O)c2c(C)c(C)c3c(c2C)CCC(C)(C)O3)C(=O)N1 [Compound 47] | – | – | – | – | – | 987 (minimum inhibitory concentration) [1, 6]: + (MIC of the compound in the range of greater than or equal to 62.6 (μg/ml)); 243 (minimum inhibitory concentration) [2, 7]: + (MIC of the compound in the range of greater than or equal to 62.6 (μg/ml)); 820 (minimum inhibitory concentration) [3, 8]: + (MIC of the compound in the range of greater than or equal to 62.6 (μg/ml)); Sa (minimum inhibitory concentration) [4, 9]: +++ (MIC of the compound in the range of greater than or equal to 0.99 (μg/ml) and less than or equal to 15.6 (μg/ml)); 449 (minimum inhibitory concentration) [5, 10]: + (MIC of the compound in the range of greater than or equal to 62.6 (μg/ml)) |
